Active and inactive are the calls of the source. The calls are words filed in the database; no cut-off is given here.

Series [1] has as its target T1, Proteinase-activated receptor 1 (Homo sapiens, UniProt P25116).
T1 sequence (P25116 whole entry): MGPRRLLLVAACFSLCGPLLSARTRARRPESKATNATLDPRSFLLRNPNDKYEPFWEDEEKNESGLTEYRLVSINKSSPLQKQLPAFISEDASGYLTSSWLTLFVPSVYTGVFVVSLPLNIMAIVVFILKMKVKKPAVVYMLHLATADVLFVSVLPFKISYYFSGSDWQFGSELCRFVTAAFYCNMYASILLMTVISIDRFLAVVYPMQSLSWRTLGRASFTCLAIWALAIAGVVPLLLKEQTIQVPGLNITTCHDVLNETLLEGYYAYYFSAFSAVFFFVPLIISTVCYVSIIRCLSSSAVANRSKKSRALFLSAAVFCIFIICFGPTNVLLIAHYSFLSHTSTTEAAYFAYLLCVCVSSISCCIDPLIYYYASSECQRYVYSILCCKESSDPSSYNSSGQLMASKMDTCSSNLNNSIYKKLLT
The experiment in a line: Displacement of [3H]haTRAP from PAR-1 isolated from human platelets by liquid scintillation counting analysis.

Series [2] can be described thus: AUC (0 to 6 hrs) in rat plasma at 10 mg/kg, po. Set-up: time < 6 hr, dose 10 mg/kg, route oral. It counts as ADME, organism-based.
The next series relates to Cynomolgus monkey. As to the kind of experiment: Ex vivo inhibition of PAR-1 in cynomolgus monkey blood assessed as inhibition of haTRAP-induced platelet aggregation at 1 mg/kg, po up to 24 hrs by aggregometry. Details: dose 1 mg/kg. Particulars: Macaca fascicularis. The class given is functional, organism-based.
Series [3] in a line: Aqueous solubility of the compound. It counts as physicochemical.

`C[C@H]1OC(=O)[C@@H]2C[C@@H]3C[C@H](C(=O)Nc4cccnc4)CC[C@H]3[C@H](/C=C/c3ccc(-c4cccc(C(F)(F)F)c4)cn3)[C@H]12`: the inhibition constant (Ki) in series [1] worked out at 0.239 µM.

As for `CCOC(=O)N[C@@H]1CC[C@@H]2[C@@H](C1)C[C@H]1C(=O)O[C@H](C)[C@H]1[C@H]2/C=C/c1ccc(-c2cccc(F)c2)cn1` [VORAPAXAR], the AUC(0-t) at 6 h in series [2] was 3060 ng·h/mL. The same compound returned a Ki in series [1] of 0.0085 µM.

For the compound `C[C@H](N)C(=O)NC[C@@H]1CC[C@@H]2[C@@H](C1)C[C@H]1C(=O)O[C@H](C)[C@H]1[C@H]2/C=C/c1ccc(-c2cccc(F)c2)cn1`, in series [1], the Ki worked out at 0.032 µM.

Turning to `CNC(=O)[C@@H]1CC[C@@H]2[C@@H](C1)C[C@H]1C(=O)O[C@H](C)[C@H]1[C@H]2/C=C/c1ccc(-c2cccc(C(F)(F)F)c2)cn1`, the affinity in series [1] corresponds to a Ki of 0.025 µM.

In series [1], `CCS(=O)(=O)NC[C@@H]1CC[C@@H]2[C@@H](C1)C[C@H]1C(=O)O[C@H](C)[C@H]1[C@H]2/C=C/c1ccc(-c2cccc(F)c2)cn1` registered a Ki of 0.0145 µM.

On to `C[C@H]1OC(=O)[C@@H]2C[C@@H]3C[C@H](CO)CC[C@H]3[C@H](/C=C/c3ccc(-c4cccc(F)c4)cn3)[C@H]12`, for which the AUC(0-t) at 6 h in series [2] stood at 2670 ng·h/mL. Further, the Ki in series [1] came to 0.008 µM.

For the compound `CCOC(=O)NC[C@@H]1CC[C@@H]2[C@@H](C1)C[C@H]1C(=O)O[C@H](C)[C@H]1[C@H]2/C=C/c1ccc(-c2cccc(F)c2)cn1`, the AUC(0-t) at 6 h in series [2] came to 1210 ng·h/mL. For the same compound, the Ki in series [1] was found to be 0.014 µM.

For the compound `CCOC(=O)N[C@@H]1CC[C@@H]2[C@@H](C1)C[C@@]1(O)C(=O)O[C@H](C)[C@H]1[C@H]2/C=C/c1ccc(-c2cccc(F)c2)cn1`, in the series with Cynomolgus monkey, the outcome was Active. In series [2], this compound displayed an area under the curve AUC(0-t) at 6 h of 7430 ng·h/mL. This compound also returned a Ki in series [1] of 0.0195 µM.

In the case of `C[C@H]1OC(=O)[C@@H]2C[C@@H]3C[C@H](CN)CC[C@H]3[C@H](/C=C/c3ccc(-c4cccc(F)c4)cn3)[C@H]12`, the Ki in series [1] was 0.02 µM.

`CCNC(=O)[C@@H]1CC[C@@H]2[C@@H](C1)C[C@H]1C(=O)O[C@H](C)[C@H]1[C@H]2/C=C/c1ccc(-c2cccc(C(F)(F)F)c2)cn1` showed a Ki in series [1] of 0.035 µM.

As for `CC(C)NC(=O)[C@@H]1CC[C@@H]2[C@@H](C1)C[C@H]1C(=O)O[C@H](C)[C@H]1[C@H]2/C=C/c1ccc(-c2cccc(C(F)(F)F)c2)cn1`, the inhibitory constant (Ki) in series [1] was found to be 0.031 µM.

On to `C[C@H]1OC(=O)[C@@H]2C[C@@H]3C[C@H](CNS(C)(=O)=O)CC[C@H]3[C@H](/C=C/c3ccc(-c4cccc(F)c4)cn3)[C@H]12`, for which the AUC(0-t) at 6 h in series [2] came out at 7760 ng·h/mL. In series [1], this compound returned an inhibition constant Ki of 0.015 µM.

In series [2], `CCNC(=O)NC[C@@H]1CC[C@@H]2[C@@H](C1)C[C@H]1C(=O)O[C@H](C)[C@H]1[C@H]2/C=C/c1ccc(-c2cccc(F)c2)cn1` returned an exposure AUC(0-t) at 6 h of 567 ng·h/mL. Also, in series [1], the Ki stood at 0.0129 µM.

For the compound `COC(=O)NC[C@@H]1CC[C@@H]2[C@@H](C1)C[C@H]1C(=O)O[C@H](C)[C@H]1[C@H]2/C=C/c1ccc(-c2cccc(F)c2)cn1`, the result with Cynomolgus monkey was inactive. Also, in series [2], the AUC(0-t) at 6 h was 4860 ng·h/mL. The compound further gave a Ki in series [1] of 0.005 µM.

On to `CC(=O)NC[C@@H]1CC[C@@H]2[C@@H](C1)C[C@H]1C(=O)O[C@H](C)[C@H]1[C@H]2/C=C/c1ccc(-c2cccc(F)c2)cn1`, for which the AUC(0-t) at 6 h in series [2] turned out to be 3810 ng·h/mL. For the same compound, affinity in series [1] was put at a Ki of 0.012 µM.

As for `C[C@H]1OC(=O)[C@@H]2C[C@@H]3C[C@H](CNC(=O)C4CCNCC4)CC[C@H]3[C@H](/C=C/c3ccc(-c4cccc(F)c4)cn3)[C@H]12`, the AUC(0-t) at 6 h in series [2] was found to be 5 ng·h/mL. The compound further displayed a Ki in series [1] of 0.0135 µM.

Consider `CCC(=O)NC[C@@H]1CC[C@@H]2[C@@H](C1)C[C@H]1C(=O)O[C@H](C)[C@H]1[C@H]2/C=C/c1ccc(-c2cccc(F)c2)cn1`, for which the exposure AUC(0-t) at 6 h in series [2] came to 7730 ng·h/mL. The same compound displayed a Ki in series [1] of 0.0125 µM.

As to `C[C@H]1OC(=O)[C@@H]2C[C@@H]3C[C@H](CNC(=O)[C@@H]4CCCN4)CC[C@H]3[C@H](/C=C/c3ccc(-c4cccc(F)c4)cn3)[C@H]12`, the Ki in series [1] came out at 0.024 µM.

Compound `C[C@H]1OC(=O)[C@@H]2C[C@@H]3C[C@H](C(=O)Nc4ccncc4)CC[C@H]3[C@H](/C=C/c3ccc(-c4cccc(C(F)(F)F)c4)cn3)[C@H]12` showed a Ki in series [1] of 0.14 µM.

For `C[C@H]1OC(=O)[C@@H]2C[C@@H]3C[C@H](C(=O)N4CC[C@H](O)C4)CC[C@H]3[C@H](/C=C/c3ccc(-c4cccc(C(F)(F)F)c4)cn3)[C@H]12`, the Ki in series [1] is 0.384 µM.

`CCOC(=O)N1CC[C@@H]2[C@H](C[C@H]3C(=O)O[C@H](C)[C@H]3[C@H]2/C=C/c2ccc(-c3cccc(F)c3)cn2)C1`: the solubility in series [3] was less than 2 µM.

Take `C[C@H]1OC(=O)[C@@H]2C[C@@H]3C[C@H](C(=O)N4CC[C@@H](O)C4)CC[C@H]3[C@H](/C=C/c3ccc(-c4cccc(C(F)(F)F)c4)cn3)[C@H]12`: the Ki in series [1] amounted to 0.18 µM.

The compound `C[C@H]1OC(=O)[C@@H]2C[C@@H]3C[C@H](C(=O)NCCO)CC[C@H]3[C@H](/C=C/c3ccc(-c4cccc(C(F)(F)F)c4)cn3)[C@H]12` had a Ki in series [1] of 0.098 µM.

(Values after ChEMBL document CHEMBL3108665, “Himbacine-derived thrombin receptor antagonists: c7-aminomethyl and c9a-hydroxy analogues of vorapaxar” (ACS Med Chem Lett, 2014).)
